Data as given in patent US20040220131A1, “Method for treatment of cancerous angiogenic disorders” (The University of British Columbia, priority 2003, published 2004).

Key:
HUVECS [1] = assay: HUVEC cell viability (mts, absorbance 490 and 595 nm) after antisense with or without drug; format: cell-based, human
Method: HUVECS were grown for 2 days in wells after seeding at 1200 per well. Antisense oligonucleotide of Seq. ID No. 5 (4 μg/ml with lipofectin) was added in serum free medium and incubated with the cells for 4 hours. Then 100 μl of serum was added and incubation was continued overnight. The next day, 150 μl of drug solution in serum medium was added. After two days, 20 μl of mts solution was added and left for approximately 3 hours. Cell viability was determined as the difference between absorption at 490 and 595 nm.

HUVECS [2] = details: by the induction of apoptosis; cited from earlier work
[3] = Table 2, Drug alone (100 nM camptothecin)
[4] = Table 3, Drug alone (200 nM doxorubicin)
[5] = Table 1, Drug alone (100 nM paclitaxel)
[6] = Table 1 (paclitaxel series), AS 50 nM, no drug
[7] = Table 1 (paclitaxel series), AS 100 nM, no drug
[8] = Table 1 (paclitaxel series), AS 200 nM, no drug
[9] = Table 1, Drug (100 nM paclitaxel) + AS 50 nM
[10] = Table 1, Drug (100 nM paclitaxel) + AS 100 nM
[11] = Table 1, Drug (100 nM paclitaxel) + AS 200 nM
[12] = Table 2 (camptothecin series), AS 50 nM, no drug
[13] = Table 2 (camptothecin series), AS 100 nM, no drug
[14] = Table 2 (camptothecin series), AS 200 nM, no drug
[15] = Table 2, Drug (100 nM camptothecin) + AS 50 nM
[16] = Table 2, Drug (100 nM camptothecin) + AS 100 nM
[17] = Table 2, Drug (100 nM camptothecin) + AS 200 nM
[18] = Table 3 (doxorubicin series), AS 50 nM, no drug
[19] = Table 3 (doxorubicin series), AS 100 nM, no drug
[20] = Table 3 (doxorubicin series), AS 200 nM, no drug
[21] = Table 3, Drug (200 nM doxorubicin) + AS 50 nM
[22] = Table 3, Drug (200 nM doxorubicin) + AS 100 nM
[23] = Table 3, Drug (200 nM doxorubicin) + AS 200 nM

Compound: CC[C@@]1(O)C(=O)OCc2c1cc1n(c2=O)Cc2cc3ccccc3nc2-1 [camptothecin, reference compound]
- absorbance at 490 nm (HUVECS [1]; [3]): 0.55
- absorbance at 595 nm (HUVECS [1]; [3]): 0.07
- concentration range that inhibits Huvecs (HUVECS [2]): low nanomolar range

Compound: COc1cccc2c1C(=O)c1c(O)c3c(c(O)c1C2=O)C[C@@](O)(C(=O)CO)C[C@@H]3O[C@H]1C[C@H](N)[C@H](O)[C@H](C)O1 [doxorubicin, reference compound]
- absorbance at 490 nm (HUVECS [1]; [4]): 0.74
- absorbance at 595 nm (HUVECS [1]; [4]): 0.08
- concentration range that inhibits Huvecs (HUVECS [2]): low nanomolar range

Compound: CC(=O)O[C@H]1C(=O)[C@@]2(C)[C@H]([C@H](OC(=O)c3ccccc3)[C@]3(O)C[C@H](OC(=O)[C@H](O)[C@@H](NC(=O)c4ccccc4)c4ccccc4)C(C)=C1C3(C)C)[C@]1(OC(C)=O)CO[C@@H]1C[C@@H]2O [paclitaxel, reference compound]
- absorbance at 490 nm (HUVECS [1]; [5]): 0.53
- absorbance at 595 nm (HUVECS [1]; [5]): 0.12
- concentration range that inhibits Huvecs (HUVECS [2]): low nanomolar range

Compound: AS: Antisense oligonucleotide of Seq. ID No. 5, reduces the effective amount of clusterin (antisense CAGCAGCAGAGTCTTCATCAT; listed as DNA, chemistry not given here)
- cell viability, response to antisense in the presence of drug versus absence (HUVECS [1]; FIG. 1, in the presence of 100 nM paclitaxel): greater
- cell viability, response to antisense concentration (HUVECS [1]; FIG. 1, paclitaxel series): dose dependent response
- cell viability, response to antisense concentration (HUVECS [1]; FIG. 2, camptothecin series): dose dependent response
- cell viability, response to antisense in the presence of drug versus absence (HUVECS [1]; FIG. 2, in the presence of 100 nM camptothecin): greater
- cell viability, response to antisense concentration (HUVECS [1]; FIG. 3, doxorubicin series): dose dependent response
- cell viability, response to antisense in the presence of drug versus absence (HUVECS [1]; FIG. 3, in the presence of 200 nM doxorubicin): greater
- absorbance at 490 nm (HUVECS [1]; [6]): 0.66
- absorbance at 595 nm (HUVECS [1]; [6]): 0.04
- absorbance at 490 nm (HUVECS [1]; [7]): 0.40
- absorbance at 595 nm (HUVECS [1]; [7]): 0.09
- absorbance at 490 nm (HUVECS [1]; [8]): 0.28
- absorbance at 595 nm (HUVECS [1]; [8]): 0.07
- absorbance at 490 nm (HUVECS [1]; [9]): 0.50
- absorbance at 595 nm (HUVECS [1]; [9]): 0.09
- absorbance at 490 nm (HUVECS [1]; [10]): 0.24
- absorbance at 595 nm (HUVECS [1]; [10]): 0.04
- absorbance at 490 nm (HUVECS [1]; [11]): 0.17
- absorbance at 595 nm (HUVECS [1]; [11]): 0.05
- absorbance at 490 nm (HUVECS [1]; [12]): 0.66
- absorbance at 595 nm (HUVECS [1]; [12]): 0.10
- absorbance at 490 nm (HUVECS [1]; [13]): 0.39
- absorbance at 595 nm (HUVECS [1]; [13]): 0.06
- absorbance at 490 nm (HUVECS [1]; [14]): 0.21
- absorbance at 595 nm (HUVECS [1]; [14]): 0.04
- absorbance at 490 nm (HUVECS [1]; [15]): 0.53
- absorbance at 595 nm (HUVECS [1]; [15]): 0.07
- absorbance at 490 nm (HUVECS [1]; [16]): 0.31
- absorbance at 595 nm (HUVECS [1]; [16]): 0.08
- absorbance at 490 nm (HUVECS [1]; [17]): 0.15
- absorbance at 595 nm (HUVECS [1]; [17]): 0.05
- absorbance at 490 nm (HUVECS [1]; [18]): 0.66
- absorbance at 595 nm (HUVECS [1]; [18]): 0.07
- absorbance at 490 nm (HUVECS [1]; [19]): 0.35
- absorbance at 595 nm (HUVECS [1]; [19]): 0.05
- absorbance at 490 nm (HUVECS [1]; [20]): 0.22
- absorbance at 595 nm (HUVECS [1]; [20]): 0.04
- absorbance at 490 nm (HUVECS [1]; [21]): 0.66
- absorbance at 595 nm (HUVECS [1]; [21]): 0.06
- absorbance at 490 nm (HUVECS [1]; [22]): 0.32
- absorbance at 595 nm (HUVECS [1]; [22]): 0.04
- absorbance at 490 nm (HUVECS [1]; [23]): 0.18
- absorbance at 595 nm (HUVECS [1]; [23]): 0.02
